Measurements reported in publication PMC4845862, “Quantification of active mitochondrial permeability transition pores using GNX-4975 inhibitor titrations provides insights into molecular identity” (Biochemical Journal, 2016).

Test system: adenine nucleotide translocase (ANT)
Assay: Binding of solubilized heart IMM proteins to immobilized phenylarsine oxide (Western blot of ANT)
Parameters: species or system beef and pig
Settings: heart mitochondria treated with 10 μM CAT prior to IMM isolation and solubilization
Experimental: Centrifugation steps in this process were carried out using a benchtop Eppendorf 5415R centrifuge at 4°C. Mitochondria were washed in ISB and centrifuged at 12 000 g for 5 min before re-suspension in ISB containing protease inhibitors (4 μg/ml each of antipan, pepstatin A and leupeptin plus 0.5 mM benzamidine and 0.5 mM PMSF). Mitochondria were incubated with digitonin (0.12 mg/mg of mitochondrial protein) at 4°C for 15 min on a rotary mixer, and the resulting mitoplasts collected by centrifugation at 9000 g for 10 min before resuspension in ISB containing protease inhibitors and PEG ether W1 (Sigma P7516, formerly known as Lubrol) at 0.16 mg/mg of mitochondrial protein. […]
An immobilized PAO matrix was synthesized by coupling 4-aminophenylarsine oxide to Affi-gel 10 (Bio-Rad Laboratories 153-6099) as described previously. The resin was washed twice in 10 volumes of PAO column buffer (PCB: 150 mM Na2SO4, 50 mM HEPES and 1 mM EGTA, pH 7.2) containing 0.5% (v/v) Triton X-100 and then resuspended to give a 50% (v/v) slurry ready for use. […] Samples were analysed by SDS/PAGE and Western blotting or analysed by Orbitrap MS in the University of Bristol Proteomics Facility. […] The integrated optical density for each band was calculated as the product of the ‘area’ and ‘mean grey value’ with subtraction of a background signal obtained for an equivalent adjacent area lacking any band. […]

C=C1[C@@H]2CC[C@H]3[C@]4(C)C[C@H](O[C@@H]5O[C@H](CO)[C@@H](OS(=O)(=O)O)[C@H](OS(=O)(=O)O)[C@H]5OC(=O)CC(C)C)CC(C(=O)O)(C(=O)O)[C@H]4CC[C@]3(C2)[C@H]1O [CAT, carboxyatractyloside]
ANT binding to the PAO column: totally prevented
